From article PMC8213057, “Targeting ALK2: An Open Science Approach to Developing Therapeutics for the Treatment of Diffuse Intrinsic Pontine Glioma” (Journal of Medicinal Chemistry, 2020) come the findings set out here.

The target in one assay is CLK4 (Homo sapiens, UniProt Q9HAZ1). Particulars: 1 μM; Run 1, Run 2.
For a further assay, the target named is T1, MEKK3 (Homo sapiens, UniProt Q99759).
T1 sequence (Q99759 1-626): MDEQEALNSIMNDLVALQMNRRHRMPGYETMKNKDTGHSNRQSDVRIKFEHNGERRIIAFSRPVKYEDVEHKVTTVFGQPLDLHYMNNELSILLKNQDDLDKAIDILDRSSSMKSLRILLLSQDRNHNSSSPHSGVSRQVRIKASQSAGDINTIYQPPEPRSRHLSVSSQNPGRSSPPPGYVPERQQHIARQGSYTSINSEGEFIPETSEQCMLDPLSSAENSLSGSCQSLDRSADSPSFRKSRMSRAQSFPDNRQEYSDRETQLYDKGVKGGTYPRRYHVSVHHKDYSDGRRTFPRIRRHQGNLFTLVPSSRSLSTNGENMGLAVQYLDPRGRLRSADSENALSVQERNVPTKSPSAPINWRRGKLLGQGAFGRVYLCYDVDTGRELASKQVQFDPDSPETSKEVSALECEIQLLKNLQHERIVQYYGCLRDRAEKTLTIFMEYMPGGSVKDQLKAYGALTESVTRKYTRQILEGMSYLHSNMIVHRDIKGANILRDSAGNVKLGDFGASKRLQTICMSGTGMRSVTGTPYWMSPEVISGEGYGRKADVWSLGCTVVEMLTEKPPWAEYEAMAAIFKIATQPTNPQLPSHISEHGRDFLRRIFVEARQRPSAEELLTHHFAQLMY
Particulars: 1 μM; Run 1, Run 2.

The target in a further assay is MLCK2/MYLK2 (Homo sapiens, UniProt Q9H1R3). Particulars: 1 μM; Run 1, Run 2.
MLCK2/MYLK2, sequence (Q9H1R3 whole entry): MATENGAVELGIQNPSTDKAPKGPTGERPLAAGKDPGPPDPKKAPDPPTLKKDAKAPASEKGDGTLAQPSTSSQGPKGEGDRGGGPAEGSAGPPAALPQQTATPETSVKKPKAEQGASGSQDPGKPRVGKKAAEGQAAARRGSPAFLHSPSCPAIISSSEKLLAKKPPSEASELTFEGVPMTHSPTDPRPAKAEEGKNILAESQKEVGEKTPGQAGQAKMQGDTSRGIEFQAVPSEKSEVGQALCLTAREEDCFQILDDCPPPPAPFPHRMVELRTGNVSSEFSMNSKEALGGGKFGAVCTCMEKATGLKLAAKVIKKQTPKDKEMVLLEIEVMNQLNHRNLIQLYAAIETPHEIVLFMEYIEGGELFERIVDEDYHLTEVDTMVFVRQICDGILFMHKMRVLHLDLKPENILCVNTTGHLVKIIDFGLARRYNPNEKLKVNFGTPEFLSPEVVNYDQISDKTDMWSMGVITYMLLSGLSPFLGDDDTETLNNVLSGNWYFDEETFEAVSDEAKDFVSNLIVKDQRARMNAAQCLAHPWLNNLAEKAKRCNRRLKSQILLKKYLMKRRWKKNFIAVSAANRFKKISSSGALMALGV
The target in another assay is T2, NEK11 (Homo sapiens, UniProt Q8NG66).
T2 sequence (Q8NG66 1-645): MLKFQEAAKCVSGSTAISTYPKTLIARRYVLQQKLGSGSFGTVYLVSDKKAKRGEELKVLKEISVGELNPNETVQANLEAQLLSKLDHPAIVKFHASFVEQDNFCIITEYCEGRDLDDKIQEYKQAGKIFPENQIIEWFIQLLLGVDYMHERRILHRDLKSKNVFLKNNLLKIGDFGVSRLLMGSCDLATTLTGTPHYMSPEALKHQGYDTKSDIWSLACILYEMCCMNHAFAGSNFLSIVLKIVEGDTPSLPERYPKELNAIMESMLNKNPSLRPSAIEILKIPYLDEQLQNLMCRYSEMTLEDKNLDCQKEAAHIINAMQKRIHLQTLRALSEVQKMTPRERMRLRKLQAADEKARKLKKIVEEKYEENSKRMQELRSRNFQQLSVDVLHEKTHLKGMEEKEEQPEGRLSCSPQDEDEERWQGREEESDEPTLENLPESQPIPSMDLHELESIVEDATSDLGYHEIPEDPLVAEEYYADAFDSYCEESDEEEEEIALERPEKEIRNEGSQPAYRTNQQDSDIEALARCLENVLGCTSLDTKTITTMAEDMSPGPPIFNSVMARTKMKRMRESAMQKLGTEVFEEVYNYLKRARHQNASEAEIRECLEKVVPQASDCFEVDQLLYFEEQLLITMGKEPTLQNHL
Particulars: 1 μM; Run 1, Run 2.

The target of the next assay is T3, Aurora A (Homo sapiens, UniProt O14965).
T3 sequence (O14965 1-403): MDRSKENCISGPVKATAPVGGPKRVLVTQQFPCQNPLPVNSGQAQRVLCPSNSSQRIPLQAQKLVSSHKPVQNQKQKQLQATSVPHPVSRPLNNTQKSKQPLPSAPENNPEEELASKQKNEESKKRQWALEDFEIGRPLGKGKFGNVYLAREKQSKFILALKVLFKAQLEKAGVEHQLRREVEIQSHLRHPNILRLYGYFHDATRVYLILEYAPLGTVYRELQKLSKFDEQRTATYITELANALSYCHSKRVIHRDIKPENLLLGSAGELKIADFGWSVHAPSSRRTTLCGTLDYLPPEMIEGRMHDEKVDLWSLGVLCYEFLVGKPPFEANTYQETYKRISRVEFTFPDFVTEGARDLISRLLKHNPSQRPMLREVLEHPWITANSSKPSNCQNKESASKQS
The experiment in a line: biochemical. Particulars: read-out: % enzyme activity, 1 μM; Run 1, Run 2.

For the next assay, the target named is c-MET (Homo sapiens, UniProt P08581). In words: biochemical. Particulars: read-out: % enzyme activity, 1 μM; Run 1, Run 2.
c-MET, sequence (P08581 25-1390): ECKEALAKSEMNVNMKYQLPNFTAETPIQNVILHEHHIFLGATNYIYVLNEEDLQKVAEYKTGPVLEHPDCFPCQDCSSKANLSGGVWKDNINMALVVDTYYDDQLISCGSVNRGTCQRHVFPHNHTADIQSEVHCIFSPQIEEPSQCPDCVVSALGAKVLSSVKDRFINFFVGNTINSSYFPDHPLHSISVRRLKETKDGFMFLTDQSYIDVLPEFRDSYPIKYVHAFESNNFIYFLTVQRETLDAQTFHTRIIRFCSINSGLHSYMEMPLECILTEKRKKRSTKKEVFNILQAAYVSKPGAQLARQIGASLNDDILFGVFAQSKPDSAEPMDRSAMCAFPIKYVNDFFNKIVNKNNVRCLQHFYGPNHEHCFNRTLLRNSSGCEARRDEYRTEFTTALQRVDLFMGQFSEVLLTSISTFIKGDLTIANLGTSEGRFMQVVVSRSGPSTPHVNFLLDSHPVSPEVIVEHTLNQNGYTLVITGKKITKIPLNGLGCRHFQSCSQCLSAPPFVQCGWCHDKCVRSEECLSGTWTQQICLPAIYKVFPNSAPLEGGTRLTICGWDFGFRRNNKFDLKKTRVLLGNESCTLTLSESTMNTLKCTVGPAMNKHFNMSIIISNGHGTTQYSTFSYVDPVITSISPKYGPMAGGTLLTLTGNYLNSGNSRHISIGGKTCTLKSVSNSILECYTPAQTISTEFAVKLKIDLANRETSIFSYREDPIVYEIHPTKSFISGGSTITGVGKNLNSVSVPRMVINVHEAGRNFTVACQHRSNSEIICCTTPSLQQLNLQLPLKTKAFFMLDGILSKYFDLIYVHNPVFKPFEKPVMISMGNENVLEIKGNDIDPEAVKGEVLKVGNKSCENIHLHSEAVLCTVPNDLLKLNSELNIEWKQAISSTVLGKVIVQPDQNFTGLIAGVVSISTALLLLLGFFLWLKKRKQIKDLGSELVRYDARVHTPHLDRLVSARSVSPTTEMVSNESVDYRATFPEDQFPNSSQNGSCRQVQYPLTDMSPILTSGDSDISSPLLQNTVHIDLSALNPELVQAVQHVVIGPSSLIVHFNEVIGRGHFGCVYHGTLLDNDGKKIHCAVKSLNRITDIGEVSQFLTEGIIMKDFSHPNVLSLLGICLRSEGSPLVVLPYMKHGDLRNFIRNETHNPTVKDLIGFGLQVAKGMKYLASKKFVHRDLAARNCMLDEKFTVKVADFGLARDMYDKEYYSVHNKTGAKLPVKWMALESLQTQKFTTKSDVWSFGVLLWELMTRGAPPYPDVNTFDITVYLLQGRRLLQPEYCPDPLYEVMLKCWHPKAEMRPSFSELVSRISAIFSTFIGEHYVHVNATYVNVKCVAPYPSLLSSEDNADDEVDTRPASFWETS
The next assay has as its target FES/FPS (Homo sapiens, UniProt P07332). The experiment in a line: biochemical. Particulars: read-out: % enzyme activity, 1 μM; Run 1, Run 2.
The target of a further assay is HIPK1 (Homo sapiens, UniProt Q86Z02). The experiment in a line: biochemical. As to conditions: read-out: % enzyme activity, 1 μM; Run 1, Run 2.
HIPK1, sequence (Q86Z02 whole entry): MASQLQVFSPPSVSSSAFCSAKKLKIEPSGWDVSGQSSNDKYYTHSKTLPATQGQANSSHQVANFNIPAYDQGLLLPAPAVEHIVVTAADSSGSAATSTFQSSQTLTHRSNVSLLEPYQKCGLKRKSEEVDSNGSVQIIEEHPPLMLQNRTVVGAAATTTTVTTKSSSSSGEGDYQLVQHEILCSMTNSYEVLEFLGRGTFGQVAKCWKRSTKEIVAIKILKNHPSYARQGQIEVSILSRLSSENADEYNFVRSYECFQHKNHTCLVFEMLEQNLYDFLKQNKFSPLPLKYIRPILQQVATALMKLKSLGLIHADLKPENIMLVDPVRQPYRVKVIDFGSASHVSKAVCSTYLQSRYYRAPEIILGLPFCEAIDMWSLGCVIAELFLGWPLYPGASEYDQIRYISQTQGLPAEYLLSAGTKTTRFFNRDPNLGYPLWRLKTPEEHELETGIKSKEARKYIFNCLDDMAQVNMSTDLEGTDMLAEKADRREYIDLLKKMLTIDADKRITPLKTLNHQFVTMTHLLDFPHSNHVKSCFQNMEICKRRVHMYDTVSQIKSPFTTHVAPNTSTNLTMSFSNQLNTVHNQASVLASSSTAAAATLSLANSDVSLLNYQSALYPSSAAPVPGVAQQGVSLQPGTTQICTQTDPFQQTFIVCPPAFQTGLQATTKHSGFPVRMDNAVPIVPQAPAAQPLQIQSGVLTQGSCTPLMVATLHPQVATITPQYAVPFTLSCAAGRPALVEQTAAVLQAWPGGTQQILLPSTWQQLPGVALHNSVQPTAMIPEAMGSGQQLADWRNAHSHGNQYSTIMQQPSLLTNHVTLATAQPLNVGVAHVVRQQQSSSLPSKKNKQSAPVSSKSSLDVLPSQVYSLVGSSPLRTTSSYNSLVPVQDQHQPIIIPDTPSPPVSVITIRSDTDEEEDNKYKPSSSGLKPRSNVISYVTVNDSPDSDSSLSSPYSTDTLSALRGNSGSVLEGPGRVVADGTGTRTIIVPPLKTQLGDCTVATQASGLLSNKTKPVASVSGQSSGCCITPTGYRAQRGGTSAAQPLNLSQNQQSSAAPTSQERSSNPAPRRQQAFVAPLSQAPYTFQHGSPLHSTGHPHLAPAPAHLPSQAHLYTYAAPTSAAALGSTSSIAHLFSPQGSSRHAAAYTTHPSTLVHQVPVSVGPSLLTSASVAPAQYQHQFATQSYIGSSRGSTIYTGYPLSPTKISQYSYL
Another assay deals with p70S6Kb/RPS6KB2 (Homo sapiens, UniProt Q9UBS0). The experiment in a line: biochemical. As to conditions: read-out: % enzyme activity, 1 μM; Run 1, Run 2.
p70S6Kb/RPS6KB2, sequence (Q9UBS0 whole entry): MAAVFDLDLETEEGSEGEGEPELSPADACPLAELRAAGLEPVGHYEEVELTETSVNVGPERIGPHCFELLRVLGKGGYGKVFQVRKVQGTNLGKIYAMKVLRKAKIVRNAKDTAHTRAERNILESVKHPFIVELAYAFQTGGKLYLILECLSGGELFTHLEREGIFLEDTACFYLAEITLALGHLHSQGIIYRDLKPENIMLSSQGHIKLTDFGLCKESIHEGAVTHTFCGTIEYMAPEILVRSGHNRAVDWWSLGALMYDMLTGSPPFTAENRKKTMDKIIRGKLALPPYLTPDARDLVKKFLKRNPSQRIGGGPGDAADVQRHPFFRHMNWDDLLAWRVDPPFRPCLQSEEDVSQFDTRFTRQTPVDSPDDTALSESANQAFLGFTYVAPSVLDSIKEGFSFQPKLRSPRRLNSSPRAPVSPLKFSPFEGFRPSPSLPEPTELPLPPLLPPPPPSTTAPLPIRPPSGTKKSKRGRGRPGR
The target of another assay is T4, TYRO3/SKY (Homo sapiens, UniProt Q06418).
T4 sequence (Q06418 41-890): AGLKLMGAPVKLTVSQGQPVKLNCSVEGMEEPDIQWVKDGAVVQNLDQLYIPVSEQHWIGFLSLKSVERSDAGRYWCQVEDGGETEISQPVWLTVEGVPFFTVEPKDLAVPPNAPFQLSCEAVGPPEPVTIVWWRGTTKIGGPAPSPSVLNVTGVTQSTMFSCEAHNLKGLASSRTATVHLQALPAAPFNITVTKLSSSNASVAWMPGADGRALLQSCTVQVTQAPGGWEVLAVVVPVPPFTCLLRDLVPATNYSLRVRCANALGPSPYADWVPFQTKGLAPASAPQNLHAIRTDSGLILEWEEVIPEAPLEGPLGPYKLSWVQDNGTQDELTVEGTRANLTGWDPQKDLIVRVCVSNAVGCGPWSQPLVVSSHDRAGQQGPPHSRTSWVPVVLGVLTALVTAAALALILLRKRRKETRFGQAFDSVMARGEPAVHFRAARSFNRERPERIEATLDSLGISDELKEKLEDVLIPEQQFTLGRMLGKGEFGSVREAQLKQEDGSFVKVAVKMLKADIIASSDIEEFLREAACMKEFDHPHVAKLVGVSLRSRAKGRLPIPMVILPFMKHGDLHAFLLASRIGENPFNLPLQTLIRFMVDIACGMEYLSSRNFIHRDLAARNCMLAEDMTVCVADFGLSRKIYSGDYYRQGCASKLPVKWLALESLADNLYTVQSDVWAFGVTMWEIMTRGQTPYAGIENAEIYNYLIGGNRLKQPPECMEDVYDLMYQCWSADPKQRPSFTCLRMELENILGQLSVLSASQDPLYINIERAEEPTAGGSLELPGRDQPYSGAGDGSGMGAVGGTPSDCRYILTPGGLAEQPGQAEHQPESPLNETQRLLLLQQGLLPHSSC
The experiment in a line: biochemical. Particulars: read-out: % enzyme activity, 1 μM; Run 1, Run 2.

SMILES strings stand for the structures.

FES/FPS, sequence (P07332 whole entry): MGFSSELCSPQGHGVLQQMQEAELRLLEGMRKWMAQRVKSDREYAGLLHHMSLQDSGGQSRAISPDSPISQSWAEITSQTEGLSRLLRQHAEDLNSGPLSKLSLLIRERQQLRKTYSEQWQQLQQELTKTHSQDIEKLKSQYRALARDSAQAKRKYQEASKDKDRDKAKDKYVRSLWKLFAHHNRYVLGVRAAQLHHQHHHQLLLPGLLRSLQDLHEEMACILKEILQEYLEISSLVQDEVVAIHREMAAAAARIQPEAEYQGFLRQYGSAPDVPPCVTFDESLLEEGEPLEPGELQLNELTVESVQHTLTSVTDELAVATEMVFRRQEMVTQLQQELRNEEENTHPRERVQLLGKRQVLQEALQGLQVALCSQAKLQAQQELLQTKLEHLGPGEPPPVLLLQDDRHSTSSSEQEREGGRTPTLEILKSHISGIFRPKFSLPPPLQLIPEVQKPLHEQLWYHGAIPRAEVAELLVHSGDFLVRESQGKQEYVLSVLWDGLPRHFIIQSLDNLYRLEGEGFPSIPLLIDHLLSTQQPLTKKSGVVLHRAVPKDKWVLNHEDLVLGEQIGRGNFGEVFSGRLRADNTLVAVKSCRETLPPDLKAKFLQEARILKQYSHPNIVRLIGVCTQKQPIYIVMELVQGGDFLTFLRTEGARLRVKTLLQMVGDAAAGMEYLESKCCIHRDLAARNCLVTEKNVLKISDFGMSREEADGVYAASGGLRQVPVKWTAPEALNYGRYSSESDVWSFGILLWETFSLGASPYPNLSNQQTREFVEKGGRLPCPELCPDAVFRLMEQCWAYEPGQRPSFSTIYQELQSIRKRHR
CLK4, sequence (Q9HAZ1 whole entry): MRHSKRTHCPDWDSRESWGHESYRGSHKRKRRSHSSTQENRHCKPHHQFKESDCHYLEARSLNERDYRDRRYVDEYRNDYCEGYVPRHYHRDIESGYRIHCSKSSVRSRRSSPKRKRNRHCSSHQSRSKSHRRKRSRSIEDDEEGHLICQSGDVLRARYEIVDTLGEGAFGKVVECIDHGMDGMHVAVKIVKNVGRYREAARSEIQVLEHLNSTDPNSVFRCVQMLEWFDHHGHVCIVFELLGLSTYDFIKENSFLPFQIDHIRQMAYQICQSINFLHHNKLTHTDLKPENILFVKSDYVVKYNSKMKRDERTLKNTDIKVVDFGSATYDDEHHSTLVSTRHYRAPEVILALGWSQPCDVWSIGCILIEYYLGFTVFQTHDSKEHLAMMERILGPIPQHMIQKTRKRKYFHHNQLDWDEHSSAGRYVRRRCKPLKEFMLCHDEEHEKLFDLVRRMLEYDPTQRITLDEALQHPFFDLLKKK

With `COc1cc(-c2cncc(-c3ccc(N4CCN(C)CC4)cc3)c2C)cc(F)c1C(N)=O` [Compound 26a, 2-Fluoro-6-methoxy-4-(4-methyl-5-(4-(4-methylpiperazin-1-yl)phenyl)pyridin-3-yl)benzamide], the “% enzyme activity” value on CLK4 is reported as 85.58%; on MEKK3 it was 93.57%; on MLCK2/MYLK2, 66.59%; on NEK11, 85.69%. For the same compound, the remaining activity at 1 µM on Aurora A was found to be 101%; at c-MET, 100%; on FES/FPS, 99.9%; at HIPK1, 106%; on p70S6Kb/RPS6KB2, 97.3%; on TYRO3/SKY it was 84.1%.
As for `COc1cc(-c2cncc(-c3ccc(N4C[C@@H](C)N(C)[C@@H](C)C4)cc3)c2C)cc(F)c1C(N)=O` [Compound 26c, 2-Fluoro-6-methoxy-4-(4-methyl-5-(4-((3R,5S)-3,4,5-trimethylpiperazin-1-yl)phenyl)pyridin-3-yl)benzamide], the “% enzyme activity” value is reported as 91.14% on CLK4, 100.00% at MEKK3, 82.74% on MLCK2/MYLK2 and 87.79% on NEK11. Further, the remaining activity at 1 µM at Aurora A is 102%; on c-MET, 107%; at FES/FPS it was 98.7%; on HIPK1, 99.9%; on p70S6Kb/RPS6KB2, 102%; at TYRO3/SKY, 94.5%.
